This note sets out measurements from PubChem BioAssay AID1996.

Molecules are shown by their SMILES. Converted amounts (≈) assume the structure as drawn. Some results are limits rather than exact numbers.

For the series the following is noted: buffer; pH 7.4; 200.0 µM.
Consider `Cc1cc(O)c(C(=O)/C=C/c2cccc([N+](=O)[O-])c2)c(=O)o1`, for which the kinetic solubility was over 45.2 µg/mL.
With `CCCCN(C)CCNC(=O)c1cn(C)c(=O)c2c1c1ccccc1n2C`, the kinetic solubility is over 55.3 µg/mL.
Molecule `O=C(CSc1ccc([N+](=O)[O-])cc1)Nc1cccc(S(=O)(=O)N2CCOCC2)c1` yielded a solubility (kinetic) of 17.1 µg/mL (≈ 39.1 µM).
With `O=[N+]([O-])c1ccc(O)c(Nc2ncnc3ccccc23)c1` the figure was 1.4 µg/mL (≈ 4.96 µM); with `COc1ccc(NC(=S)NC(=O)Cc2ccccc2)c(OC)c1`, 1.7 µg/mL (≈ 5.15 µM).
`COc1cccc(OCc2ccc(Cl)cc2)c1C#N` showed a kinetic solubility of under 0.6 µg/mL.
On to `COC(=O)C1CCN(C(=O)/C=C/c2ccc3c(c2)OCO3)CC1`, for which the solubility (kinetic) was 34 µg/mL (≈ 107 µM).
In turn, `CCOCc1c(C(=O)NCC(c2ccco2)N2CCCC2)oc2ccccc12` (stereo not drawn) registered a solubility (kinetic) of 56.2 µg/mL (≈ 147 µM).
Molecule `O=C(NCc1ccc(Cl)cc1)N1CCc2ccccc2C1` registered a solubility (kinetic) of 4.5 µg/mL (≈ 15 µM).
The molecule `CC(C)S(=O)(=O)c1cnc(-c2ccccn2)nc1N` yielded a solubility (kinetic) of 37.6 µg/mL (≈ 135 µM).
Under `CC(C)C(C(=O)NC1=NCCS1)c1ccc(Cl)cc1` (stereo not drawn) stands 1.7 µg/mL (≈ 5.73 µM).
Under `CCN1CCN(C(=O)NC2CCCCC2)CC1.O=C(O)C(=O)O` stands over 49.4 µg/mL; under `COc1ccccc1NC(=S)N(Cc1cccnc1)Cc1ccco1`, 48.3 µg/mL (≈ 137 µM).
Molecule `Cc1cc(NC(=O)Cc2ccc(Br)cc2)no1` had a solubility (kinetic) of 1.8 µg/mL (≈ 6.1 µM).
In turn, `Cc1nn(-c2ccccc2)c2nc(N)c(C(N)=O)cc12` came in with a solubility (kinetic) of over 40.1 µg/mL.
Under `CN(CC(=O)Nc1ccccc1Cl)C(=O)COC(=O)c1ccc([N+](=O)[O-])s1` stands over 61.8 µg/mL; under `Cc1ccc(NC(=O)CCNC(=O)c2ccco2)cc1F`, over 43.5 µg/mL.
Under `COc1ccc(CNc2nc(C)cc(C)c2C#N)cc1` stands 0.6 µg/mL (≈ 2.24 µM); under `COc1ccc(Cl)cc1NC(=O)COC(=O)C1CC1`, 34.4 µg/mL (≈ 121 µM); under `O=C(COC(=O)Cc1cccs1)Nc1cc(S(=O)(=O)N2CCOCC2)ccc1Cl`, 56.5 µg/mL (≈ 123 µM).
For the molecule `CN(Cc1nc(-c2ccccc2)no1)C(=O)c1ccco1`, the kinetic solubility was over 42.5 µg/mL.
Under `COc1ccc(C)cc1NC(=O)C1CCN(C(=O)c2ccco2)CC1` stands over 51.4 µg/mL; under `C=CCN(CC=C)C(=S)NC(=O)c1ccc(OC)cc1`, over 43.6 µg/mL; under `Cc1nn(CC(=O)NC(C)C)c(C)c1[N+](=O)[O-]`, over 36 µg/mL.
With `O=C(COC(=O)c1ccc(Cl)nc1)NCCC1=CCCCC1` the figure was 36.6 µg/mL (≈ 113 µM); with `CC(C)(C)CC(=O)Nc1cc2c3c(c1)CCC(=O)N3CCC2`, 43.2 µg/mL (≈ 144 µM).
`Cn1c(=O)c2c(O)c([N+](=O)[O-])c(=O)n(C)c2n(C)c1=O`: the solubility (kinetic) is over 42.3 µg/mL.
With `S=C(CN1CCCC1=S)NCCc1ccccc1` the figure was over 41.8 µg/mL; with `O=C(c1cc2cc(F)ccc2[nH]1)N1CCc2ccccc21`, 1.4 µg/mL (≈ 4.99 µM).
With `Cn1ccnc1C(=O)c1ccc(S(=O)(=O)N2CCCC2)cc1` the figure was over 47.9 µg/mL; with `Cc1cc(OCC(=O)Nc2ccncc2)cc(C)c1Cl`, 2.9 µg/mL (≈ 9.97 µM); with `CCc1cccc(NC(=O)COC(=O)/C=C/c2cccs2)c1`, 8.2 µg/mL (≈ 26 µM).
For `O=C(Nc1ccc(Cl)cc1)N1CCSC1=NCc1ccccc1`, the solubility (kinetic) was 26 µg/mL (≈ 75.2 µM).
With `O=C(CCl)N1CCN(C(=O)C2COc3ccccc3O2)CC1` (stereo not drawn) the figure was over 48.7 µg/mL; with `COc1cccc(CN2CCN(Cc3ccc(O)cc3)CC2CCO)c1` (stereo not drawn), 49.2 µg/mL (≈ 138 µM).
Under `C[C@@H](C(=O)Nc1ccc(OC(F)F)c(Cl)c1)N1C(=O)C2CC=CCC2C1=O` (stereo partly drawn) stands over 59.8 µg/mL; under `COc1ccc(NC(C)=O)c(C)c1`, over 26.9 µg/mL.
With `Cc1ccc(NC(=O)CSc2nc3ccccc3c(=O)[nH]2)cc1[N+](=O)[O-]` the figure was 3.6 µg/mL (≈ 9.72 µM).
In the case of `CC1CCN(CCC(=O)Nc2ccccc2)CC1`, the solubility (kinetic) is 29.5 µg/mL (≈ 120 µM).
For `Cc1nc(NC(=O)COC(=O)C2CC3CCCC(C2)C3=O)c(Cl)cc1Cl` (stereo not drawn), the solubility (kinetic) is over 59.9 µg/mL.
For `O=C(CN1C(=O)CCS(=O)(=O)c2ccccc21)NCCc1ccccc1`, the kinetic solubility was 55.3 µg/mL (≈ 148 µM).
Molecule `CCN1C(=O)CC(NNC(=O)c2ccccc2)C1=O` (stereo not drawn) came in with a kinetic solubility of over 39.2 µg/mL.
Molecule `O=C(Nc1ccc(CN2CCS(=O)(=O)CC2)cc1)c1ccc(Cl)cc1` displayed a kinetic solubility of 4.6 µg/mL (≈ 12.1 µM).
`O=C(/C=C/c1ccc(F)cc1)OCC(=O)c1ccc[nH]1` registered a kinetic solubility of 2.6 µg/mL (≈ 9.51 µM).
With `CCOc1ccccc1C(=O)OCC(=O)Nc1cccc(S(=O)(=O)N2CCCC2)c1` the figure was 19.2 µg/mL (≈ 44.4 µM); with `COCCn1c(SCC(=O)NC2CCCC2)nc2cccnc21`, over 50.2 µg/mL.
`COC(=O)CN1CC(=O)N(c2ccccc2)C1=S` displayed a kinetic solubility of over 39.6 µg/mL.
Molecule `O=C(Cc1ccccc1)c1c[nH]c(C(=O)NCc2ccncc2)c1` yielded a kinetic solubility of 6.1 µg/mL (≈ 19.1 µM).
`CC(=O)Nc1ccc2c(c1)nc(CCNC(=O)c1ccco1)n2C` registered a solubility (kinetic) of 48.2 µg/mL (≈ 148 µM).
With `COc1ccc(C(CC(=O)N2CCCCC2)C(C)C)cc1` (stereo not drawn) the figure was over 43.4 µg/mL; with `COC(=O)c1ccccc1Oc1ccc(NC(=O)c2ccco2)cc1`, 49.6 µg/mL (≈ 147 µM); with `CC1C(=O)N2CCCc3cc(NC(=O)C4CCCCC4)cc1c32` (stereo not drawn), over 46.9 µg/mL.
`CC1CCCC(NC(=O)COC(=O)c2cccs2)C1C` (stereo not drawn) showed a kinetic solubility of 43.1 µg/mL (≈ 146 µM).
As to `Fc1ccccc1NC(=S)NCCc1ccc(Cl)cc1`, the solubility (kinetic) is 39 µg/mL (≈ 126 µM).
Regarding `Cn1ccnc1CC(O)(c1ccccc1)c1ccccc1`, the solubility (kinetic) is 20.4 µg/mL (≈ 73.3 µM).
Under `CCn1c(=O)c(C(=O)Nc2ccccc2)c(O)c2ccccc21` stands under 0.3 µg/mL.
Under `CCOc1cc(N2CCOCC2)c(OCC)cc1NC(=O)C(C)(C)C` stands over 52.6 µg/mL.
Consider `O=C(CSc1ccc([N+](=O)[O-])cc1)NCC1CCCCC1`, for which the solubility (kinetic) was determined as 8.2 µg/mL (≈ 26.6 µM).
`CN(C)C=NC(=O)c1[nH]c2ccc(Cl)cc2c1-c1ccccc1` registered a solubility (kinetic) of 15.2 µg/mL (≈ 46.7 µM).
With `O=C(c1ccccc1Cl)N1CCSCC1` the figure was 31.7 µg/mL (≈ 131 µM).
Under `COc1cccc(NC(=O)CN(C)CC(=O)NC(C)c2ccccc2)c1` (stereo not drawn) stands 41.4 µg/mL (≈ 116 µM); under `Clc1ccc(CSC(Cn2ccnc2)c2ccc(Cl)cc2Cl)cc1.O=[N+]([O-])O` (stereo not drawn), 48.7 µg/mL; under `Cc1ccc(C(=O)Nc2ccc(N3CCN(C)CC3)nc2)cc1`, over 46.6 µg/mL.
Turning to `COc1ccccc1-n1cnnc1SCC(=O)N1CCOCC1`, the solubility (kinetic) was over 50.2 µg/mL.
With `COc1ccc(OCC(O)CNC(=O)Nc2cc(C)cc(C)c2)cc1` (stereo not drawn) the figure was 3.8 µg/mL (≈ 11 µM).
Under `CCC(=O)NCc1ccc(-c2nc3ncccc3o2)cc1` stands over 42.2 µg/mL; under `O=S(=O)(c1ccccc1)N1CCN(C(=S)NCCc2ccccc2)CC1`, 0.5 µg/mL (≈ 1.28 µM).
The molecule `Cc1ccc(NC(=O)c2cc(=O)[nH]c3ccccc23)cc1` gave a solubility (kinetic) of 1.6 µg/mL (≈ 5.75 µM).
Under `CN(C)C(=O)CN1C(=O)NC2(CCc3ccccc32)C1=O` (stereo not drawn) stands over 43.1 µg/mL.
Under `Cc1ccc(OCC(=O)N(Cc2ccccc2)c2ccccn2)cc1` stands 49.6 µg/mL (≈ 149 µM); under `COc1ccc(C(=O)NCCn2cc(SCC(N)=O)c3ccccc32)cc1`, 50.6 µg/mL (≈ 132 µM).
Under `Cc1cccc(NC2SC(=O)NC2=O)c1` (stereo not drawn) stands over 33.3 µg/mL.
The molecule `N#C/C(=C(/O)CN1CCCC1)c1nc(-c2ccccc2)cs1` yielded a kinetic solubility of over 46.7 µg/mL.
